Data from patent US9137992B2, “Spinosyn-producing polyketide synthases” (DOW AGROSCIENCES LLC, priority 2002, dated 2015).

Legend:
insect = assay: Insect control assays; settings: in vivo
[1] = test system: tobacco budworm (Heliothis virescens) larvae; assay: Topical assay on tobacco budworm larvae; type: in vivo; settings: acetone solution, 1 microg/larva, six larvae, mortality at end of two-day period, 21° C., 60% RH
Procedure: (§1) Biological activity of the compounds of the invention was shown by a topical assay in which the compound was applied to laboratory-reared larvae (mean weight 22 mg) at the rate of 1 microg/larva. Each compound was applied, in an acetone solution (1 mg/mL), along the dorsum of six tobacco budworm (Heliothis virescens) larvae and six beet armyworm (Spodoptera exigua) larvae. Treated larvae were then held for two days at 21° C., 60% RH in six-well plastic culture plates. Larvae were each supplied with a 1 cm^3 of agar-based Lepidoptera diet for sustenance during the two-day post-exposure interval. Percent mortality was determined at the end of a two-day period (Table 18).

[2] = test system: beet armyworm (Spodoptera exigua) larvae; assay: Topical assay on beet armyworm larvae; type: in vivo; settings: acetone solution, 1 microg/larva, six larvae, mortality at end of two-day period, 21° C., 60% RH
Procedure: as §1

| Compound | activity in insect control assays (insect) | Tobacco Budworm Mortality (%) [1] [%] | Beet Armyworm Mortality (%) [2] [%] |
| --- | --- | --- | --- |
| CCC[C@H]1CCC[C@H](O[C@H]2CC[C@H](N(C)C)[C@@H](C)O2)[C@@H](C)C(=O)C2=C[C@@H]3[C@@H](C=C[C@@H]4C[C@@H](O[C@@H]5O[C@@H](C)[C@H](OC)[C@@H](OC)[C@H]5OC)C[C@@H]34)[C@@H]2CC(=O)O1 [21-desethyl-21-n-propyl spinosyn A] | active | – | – |
| CO[C@@H]1[C@@H](OC)[C@H](C)O[C@@H](O[C@H]2C[C@H]3[C@@H]4C=C5C(=O)[C@H](C)[C@@H](O[C@H]6CC[C@H](N(C)C)[C@@H](C)O6)CCC[C@@H](C6CC6)OC(=O)C[C@H]5[C@@H]4C=C[C@@H]3C2)[C@@H]1OC [Compound 1, 21-desethyl-21-cyclopropyl spinosyn A] | – | 100 | 33 |
| CO[C@@H]1[C@@H](OC)[C@H](C)O[C@@H](O[C@H]2C[C@H]3[C@@H]4C=C5C(=O)[C@H](C)[C@@H](O[C@H]6CC[C@H](N(C)C)[C@@H](C)O6)CCC[C@@H](C6CCC6)OC(=O)C[C@H]5[C@@H]4C=C[C@@H]3C2)[C@@H]1OC [Compound 3, 21-desethyl-21-cyclobutyl spinosyn A] | – | 83 | 83 |
| CO[C@@H]1[C@@H](OC)[C@H](C)O[C@@H](O[C@H]2C[C@H]3[C@@H]4C=C5C(=O)[C@H](C)[C@@H](O[C@H]6CC[C@H](N(C)C)[C@@H](C)O6)CCC[C@H](C6CCC6)OC(=O)C[C@H]5[C@@H]4C=C(C)[C@@H]3C2)[C@@H]1OC [Compound 4, 21-desethyl-21-cyclobutyl spinosyn D] | – | 100 | 83 |
| CO[C@@H]1[C@@H](OC)[C@H](C)O[C@@H](O[C@@H]2C[C@H]3CC[C@@H]4[C@@H](C=C5C(=O)[C@H](C)[C@@H](O[C@H]6CC[C@H](N(C)C)[C@@H](C)O6)CCC[C@H](C6CCC6)OC(=O)C[C@H]54)[C@@H]3C2)[C@@H]1OC [Compound 8, 5,6-dihydro-21-desethyl-21-cyclobutyl spinosyn A] | – | 100 | 83 |
| CO[C@@H]1[C@@H](OC)[C@H](C)O[C@@H](O[C@H]2C[C@H]3[C@@H]4C=C5C(=O)[C@H](C)[C@@H](O[C@H]6CC[C@H](N(C)C)[C@@H](C)O6)CCC[C@H](C(C)C)OC(=O)C[C@H]5[C@@H]4C=C[C@@H]3C2)[C@@H]1OC [Compound 9, 21-desethyl-21-isopropyl spinosyn A] | active | 100 | 100 |
| CCC[C@H]1CCC[C@H](O[C@H]2CC[C@H](N(C)C)[C@@H](C)O2)[C@@H](C)C(=O)C2=C[C@@H]3[C@@H](C=C[C@@H]4C[C@@H](O[C@@H]5O[C@@H](C)[C@H](OC)[C@@H](OC)[C@H]5OC)C[C@@H]34)[C@@H]2CC(=O)O1 [Compound 23, 21-desethyl-21-n-propyl spinosyn A] | – | 100 | 100 |
